Measured values as given in the supplement of paper PMC10307832.

Tests used:
Test in all cases: relative viability (nuclei count vs DMSO), 5 days (fraction); higher = more cells survive
[1] = compound: C1COCCN1C2=NC(=NC3=C2OC4=C3C=CC=N4)C5=CC(=CC=C5)NC(=O)C6=CN=C(C=C6)N + O=C(c1cc(Cc2n[nH]c(=O)c3ccccc23)ccc1F)N1CCN(C(=O)C2CC2)CC1 [Olaparib] (partner 8 µM)
In short: (§1)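 The day after seeding in 1536-well plates, lung cancer cell lines were treated by pin tool with a single drug, or with a fixed anchor-drug dose together with five library-drug doses (not always all listed) in √10 steps. After 5 days, a combined fix-and-stain solution (final 0.05% Triton X-100, 1% formaldehyde, 1 ug/ml Hoechst) was added. Nuclei counted on 4× images gave relative viability as treated counts over vehicle counts, reported as the median of duplicate plates.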

SGI-1776 + AZD7762 = compound: CN1CCC(CNc2ccc3ncc(-c4cccc(OC(F)(F)F)c4)n3n2)CC1 [SGI-1776] + NC(=O)Nc1cc(-c2cccc(F)c2)sc1C(=O)N[C@H]1CCCNC1 [AZD7762] (partner 0.2 µM)
In short: as §1

SGI-1776 + Dasatinib = compound: CN1CCC(CNc2ccc3ncc(-c4cccc(OC(F)(F)F)c4)n3n2)CC1 [SGI-1776] + Cc1nc(Nc2ncc(C(=O)Nc3c(C)cccc3Cl)s2)cc(N2CCN(CCO)CC2)n1 [Dasatinib] (partner 0.075 µM)
In short: as §1

SGI-1776 + Pictilisib = compound: CN1CCC(CNc2ccc3ncc(-c4cccc(OC(F)(F)F)c4)n3n2)CC1 [SGI-1776] + CS(=O)(=O)N1CCN(Cc2cc3nc(-c4cccc5[nH]ncc45)nc(N4CCOCC4)c3s2)CC1 [Pictilisib] (partner 1 µM)
In short: as §1

Cell Line | relative viability ([1]; first compound 0.02 µM) | relative viability ([1]; first compound 0.06325 µM) | relative viability ([1]; first compound 0.2 µM) | relative viability ([1]; first compound 0.6325 µM) | relative viability ([1]; first compound 2 µM) | relative viability (SGI-1776 + AZD7762; first compound 0.08 µM) | relative viability (SGI-1776 + AZD7762; first compound 0.8 µM) | relative viability (SGI-1776 + AZD7762; first compound 2.53 µM) | relative viability (SGI-1776 + AZD7762; first compound 8 µM) | relative viability (SGI-1776 + Dasatinib; first compound 0.08 µM) | relative viability (SGI-1776 + Dasatinib; first compound 0.8 µM) | relative viability (SGI-1776 + Dasatinib; first compound 2.53 µM) | relative viability (SGI-1776 + Dasatinib; first compound 8 µM) | relative viability (SGI-1776 + Pictilisib; first compound 0.08 µM) | relative viability (SGI-1776 + Pictilisib; first compound 0.8 µM) | relative viability (SGI-1776 + Pictilisib; first compound 2.53 µM) | relative viability (SGI-1776 + Pictilisib; first compound 8 µM)
NCI-H1993 | 0.949 | 1.07 | 1.06 | 0.958 | 0.201 | 0.839 | 0.941 | 0.889 | 0.482 | 0.584 | 0.651 | 0.55 | 0.528 | 0.711 | 0.665 | 0.839 | 0.703
NCI-H2085 | 0.735 | 0.793 | 0.747 | 0.68 | 0.547 | 1.08 | 1.06 | 0.978 | 0.956 | 0.248 | 0.264 | 0.243 | 0.201 | 0.533 | 0.505 | 0.53 | 0.356
NCI-H2087 | 0.582 | 0.62 | 0.546 | 0.636 | 0.32 | 1.29 | 1.36 | 1.44 | 1.27 | 0.782 | 1.09 | 0.826 | 0.595 | 0.953 | 0.974 | 0.826 | 0.899
NCI-H2126 | 0.889 | 0.962 | 0.876 | 0.865 | 0.532 | 1 | 0.98 | 1.02 | 0.959 | 0.642 | 0.635 | 0.481 | 0.434 | 0.499 | 0.534 | 0.501 | 0.468
NCI-H2170 | 0.736 | 0.652 | 0.528 | 0.624 | 0.41 | 0.839 | 0.966 | 0.874 | 0.828 | 0.651 | 0.527 | 0.354 | 0.434 | 0.297 | 0.281 | 0.284 | 0.238
NCI-H2347 | 0.532 | 0.625 | 0.571 | 0.517 | 0.532 | 0.825 | 0.912 | 0.81 | 0.692 | 0.346 | 0.319 | 0.306 | 0.265 | 0.614 | 0.941 | 0.734 | 0.614
NCI-H2405 | 0.856 | 0.862 | 0.874 | 0.891 | 0.659 | 0.706 | 0.728 | 0.57 | 0.608 | 0.225 | 0.195 | 0.178 | 0.166 | 0.478 | 0.507 | 0.309 | 0.257
NCI-H3122 | 0.665 | 0.614 | 0.625 | 0.935 | 0.483 | 0.941 | 0.935 | 0.938 | 1 | 0.877 | 0.76 | 0.96 | 0.821 | 0.594 | 0.717 | 0.632 | 0.515
PC-3 [JPC-3] | 1.19 | 1.19 | – | 1.17 | 0.709 | 0.921 | 0.872 | 0.685 | 0.609 | 1.1 | 0.961 | 0.977 | 0.857 | 0.72 | 0.779 | 0.768 | 0.478
PC-14 | 0.304 | 0.284 | 0.249 | 0.248 | 0.186 | 0.474 | 0.352 | 0.27 | 0.146 | 0.267 | 0.256 | 0.0958 | 0.0261 | 0.667 | 0.681 | 0.747 | 0.195
